Test results: PMC6204601, “In Vivo Selectivity and Localization of Reactive Oxygen Species (ROS) Induction by Osmium Anticancer Complexes That Circumvent Platinum Resistance” (Journal of Medicinal Chemistry, 2018)
Like-named read-outs stand apart in the source and are kept apart here.

Experiments:
[1] = test system: A2780 ovarian carcinoma cells; experiment: Sulforhodamine B antiproliferative assay, A2780; assay type: cell-based, human; conditions: SRB
[2] = test system: HOF human ovarian fibroblasts; experiment: Sulforhodamine B antiproliferative assay, HOF; assay type: cell-based; conditions: 24 h drug exposure + 72 h recovery, SRB; non-cancer fibroblasts
Experimental: (§1) In vitro biological studies
(§2) Sulforhodamine B cell viability colorimetric assay.
(§3) by ICP-OES analysis for metal content).
(§4) 72 h recovery time (310 K).
(§5) using slowly-running tap water and air dried.
(§6) Data were processed using Microsoft Excel

[3] = test system: A549 lung carcinoma cells; experiment: Sulforhodamine B antiproliferative assay, A549; assay type: cell-based, human; conditions: 24 h drug exposure + 72 h recovery, SRB
[4] = test system: MRC5 human lung fibroblasts; experiment: Sulforhodamine B antiproliferative assay, MRC5; assay type: cell-based; conditions: 24 h drug exposure + 72 h recovery, SRB; non-cancer fibroblasts
Experimental: as §1, §2, §3, §4, §5, §6
IC50 values (concentrations at which […]
After this time, cells were […]

[5] = test system: HCT116 colorectal carcinoma cells; experiment: Sulforhodamine B antiproliferative assay, HCT116; assay type: cell-based, human; conditions: 24 h drug exposure + 72 h recovery, SRB; read-out: Antiproliferative activity (IC50) HCT116 Colon
[6] = test system: A2780Cis cisplatin-resistant ovarian carcinoma cells; experiment: Sulforhodamine B antiproliferative assay, A2780Cis; assay type: cell-based, human; conditions: 24 h drug exposure + 72 h recovery, SRB
[7] = test system: HCT116Ox oxaliplatin-resistant colorectal carcinoma cells; experiment: Sulforhodamine B antiproliferative assay, HCT116Ox; assay type: cell-based, human; conditions: 24 h drug exposure + 72 h recovery, SRB, read-out: Antiproliferative activity (IC50) HCT116Ox Colon
[8] = test system: HCT116p21-/- P21-knockout colorectal carcinoma cells; experiment: Sulforhodamine B antiproliferative assay, HCT116p21-/-; assay type: cell-based, human; conditions: 24 h drug exposure + 72 h recovery, SRB, read-out: Antiproliferative activity (IC50) HCT116p21-/- Colon
[9] = test system: HCT116p53-/- P53-knockout colorectal carcinoma cells; experiment: Sulforhodamine B antiproliferative assay, HCT116p53-/-; assay type: cell-based, human; conditions: 24 h drug exposure + 72 h recovery, SRB, read-out: Antiproliferative activity (IC50) HCT116p53-/- Colon
[10] = test system: AB wild-type zebrafish embryos; assay type: in vivo; conditions: 96 h exposure, read-out: LC50 (Danio rerio) AB-WT
[11] = test system: Singapore wild-type zebrafish embryos; assay type: in vivo, Danio rerio; conditions: zebrafish embryos, 96 h exposure; read-out: LC50 (Danio rerio) SG-WT
Experimental: In vivo biological studies […]
wild-type zebrafish (SGWT) embryos (< 5 dpf). All animals were maintained in accordance with ASPA […]
maintained. Light cycle: 14 hours day, 10 hours night.
1 L breeding tank. Pairs were set up the previous evening. Males and females were separated by a divider. The divider was removed around 9am (dawn). Embryos were collected and placed into petri dishes with fresh egg water. […]

[12] = test system: Tubingen wild-type zebrafish embryos; experiment: Zebrafish embryo toxicity (FET) test, TU-WT; assay type: in vivo; conditions: 96 h exposure, read-out: LC50 (Danio rerio) TU-WT
[13] = test system: HOF human ovarian fibroblasts; experiment: ROS/superoxide detection by flow cytometry, HOF; conditions: 24 h, 1.0 × IC50 (pyocyanin positive control 0.1 mM); for % Population Q2 FL1-H+ / FL2-H+: ROS and superoxide; for % Population Q1 FL1-H- / FL2-H+: superoxide only; for % Population Q3 FL1-H+ / FL2-H-: total ROS only
Experimental: Reactive oxygen species (ROS) determination using flow cytometry. The generation of ROS and
superoxide in A2780 ovarian cancer cells was evaluated using the ROS/Superoxide detection kit (Enzo
Life Sciences) following the manufacturer’s protocol.
cells per well, and incubated for 24 h (310 K). After this time, cells were exposed to equipotent
The pellets were re-suspended in 500
μL PBS and stained with green fluorescent reagent for total ROS reading in the FL1-green channel (2
μL) and orange fluorescent reagent for superoxide reading in the FL2-red channel (2 μL). Positive
control samples were treated with pyocyanin (5 μL, 30 min). Single stained positive control samples
were used for compensation purposes. Data were obtained using a Becton Dickson FACScan Flow
Cytometer and processed using FlowJo V10 for Windows.

[14] = test system: A2780 cancer cells; experiment: ROS/superoxide detection by flow cytometry, A2780; conditions: A2780, 24 h, 1.0 × IC50 (pyocyanin positive control 0.1 mM); for % Population Q2 FL1-H+ / FL2-H+: ROS and superoxide; for % Population Q1 FL1-H- / FL2-H+: superoxide only; for % Population Q3 FL1-H+ / FL2-H-: total ROS only
[15] = CV vs Ag/AgCl, 100 mV/s, 10^–3 M, CH3CN; electrochemically reversible
[16] = 24 h drug exposure + 72 h recovery in drug-free medium, read-out: Antiproliferative activity (IC50) A2780 Ovarian

| Molecule | IC50 [1, 16] | IC50 [2] | IC50 [3] | IC50 [4] | IC50 [5] | IC50 [6] | IC50 [7] | IC50 [8] | IC50 [9] | LC50 [10] | LC50 [11] | LC50 [12] | other results |
| --- | --- | --- | --- | --- | --- | --- | --- | --- | --- | --- | --- | --- | --- |
| Cc1ccc(C(C)C)cc1.O=S(=O)(c1ccc(F)cc1)[N]1[Os][NH][C@H](c2ccccc2)[C@H]1c1ccccc1 [Complex 4, [Os(p-cymene)(Fb-DPEN)]] | 17000 ± 1000 nM | 48 ± 3 µM | 31.5 ± 0.4 µM | 35 ± 1 µM | 49 ± 3 µM | 15 ± 2 µM | 54 ± 2 µM | 70 ± 3 µM | 39.4 ± 0.6 µM | 3 ± 0.5 µM | 0.7 ± 0.2 µM | 1.5 ± 0.3 µM |  |
| Cn1c2cccc(=O)c-2nc2ccccc21 [Pyocyanin, pyocyanin, reference compound] |  |  |  |  |  |  |  |  |  |  |  |  | % Population Q4 FL1-H- / FL2-H- [13]: 1.2 ± 0.5%; % Population Q2 FL1-H+ / FL2-H+ [13]: 90 ± 2%; % Population Q1 FL1-H- / FL2-H+ [13]: 8 ± 2%; % Population Q3 FL1-H+ / FL2-H- [13]: 1.2 ± 0.2%; % Population Q4 FL1-H- / FL2-H- [14]: 0.02 ± 0.01%; % Population Q2 FL1-H+ / FL2-H+ [14]: 99 ± 2%; % Population Q1 FL1-H- / FL2-H+ [14]: 0.03 ± 0.02%; % Population Q3 FL1-H+ / FL2-H- [14]: 0.00 ± 0.01% |
| Cc1ccc(C(C)C)cc1.O=S(=O)(c1ccccc1)[N]1[Os][NH][C@H](c2ccccc2)[C@H]1c1ccccc1 [Complex 5, [Os(p-cymene)(Bs-DPEN)]] | 13500 ± 900 nM | 19.9 ± 0.9 µM | 26.3 ± 0.5 µM | 31.3 ± 0.2 µM | 49 ± 6 µM | 21 ± 1 µM | 52 ± 0.8 µM | 54.3 ± 0.9 µM | 48 ± 2 µM |  | 0.8 ± 0.2 µM | 1.5 ± 0.3 µM |  |
| Cc1ccc(C(C)C)cc1.[NH-]C(c1ccccc1)C([N-]S(=O)(=O)c1ccc([N+](=O)[O-])cc1)c1ccccc1.[Os+2] (stereo not drawn) [Complex 3, [Os(p-cymene)(Ns-DPEN)]] | 19900 ± 500 nM | > 50 µM | 27 ± 2 µM | 21.9 ± 0.7 µM | 67 ± 1 µM | 21.1 ± 0.3 µM | 64 ± 5 µM | 63 ± 4 µM | 53 ± 3 µM | 3.9 ± 0.3 µM | 1.9 ± 0.3 µM |  |  |
| F[P-](F)(F)(F)(F)F.Oc1ccc(N=Nc2ccccn2)cc1.[I][Os+].c1ccc(-c2ccccc2)cc1 [Complex 13, [Os(Azpy-OH)(biphenyl)I]PF6] |  | 0.32 ± 0.09 µM | 0.52 ± 0.06 µM | 0.22 ± 0.01 µM | 0.15 ± 0.01 µM | 0.13 ± 0.02 µM | 0.14 ± 0.01 µM | 0.3 ± 0.01 µM | 0.13 ± 0.01 µM | 7.4 ± 0.2 µM | 8 ± 0.1 µM | 7.2 ± 0.2 µM | IC50 ([1]; 24 h drug exposure + 72 h recovery, value in nM, read-out: IC50 in A2780): 140 nM |
| [Os(p-cymene)(SRB-DPEN)] [Complex 6] | 18000 ± 3000 nM |  | 16.8 ± 0.2 µM |  | 40.6 ± 0.1 µM | 27.2 ± 0.4 µM | 35 ± 1 µM | 43 ± 3 µM | 34 ± 3 µM |  |  |  |  |
| N.N.O=C([O-])C1(C(=O)[O-])CCC1.[Pt+2] [carboplatin, reference compound] |  |  |  |  |  |  |  |  |  | 10 ± 1 µM | 5.7 ± 0.9 µM | 7.1 ± 0.7 µM |  |
| N.N.[Cl][Pt][Cl] [cisplatin, reference compound] | 1200 nM |  | 3.2 ± 0.1 µM | 13.5 ± 0.9 µM | 5.1 ± 0.3 µM | 11.5 ± 0.2 µM | 23.4 ± 0.4 µM | 9.2 ± 0.5 µM | 36.7 µM |  |  |  |  |
| Cc1ccc(S(=O)(=O)[N]2[Os][NH][C@H](c3ccccc3)[C@H]2c2ccccc2)cc1.c1ccc(-c2cccc(-c3ccccc3)c2)cc1 [Complex 8, [Os(terphenyl)(Ts-DPEN)]] | 4400 ± 300 nM | 24.3 ± 0.4 µM | 25.5 ± 0.3 µM | 9.7 ± 0.2 µM | 41.2 ± 0.7 µM | 10.4 ± 0.5 µM |  |  |  |  | 0.7 ± 0.2 µM |  |  |
| CS(=O)(=O)[N]1[Os][NH][C@H](c2ccccc2)[C@H]1c1ccccc1.Cc1ccc(C(C)C)cc1 [Complex 2, [Os(p-cymene)(Ms-DPEN)]] | 30000 ± 2000 nM | > 50 µM | 31 ± 1 µM | 26 ± 0.4 µM | 67 ± 1 µM | 39.4 ± 0.6 µM | 56 ± 5 µM | 71 ± 5 µM | 56 ± 6 µM | 2.8 ± 0.6 µM | 3.5 ± 0.4 µM | 2.8 ± 0.5 µM |  |
| CN(C)c1ccc(N=Nc2ccccn2)cc1.Cc1ccc(C(C)C)cc1.F[P-](F)(F)(F)(F)F.[Cl][Os+] [Complex 9, [Os(Azpy-NMe2)(p-cymene)Cl]PF6] | 1800 ± 100 nM | 11.1 ± 0.9 µM | 36.6 ± 0.8 µM | 7.1 ± 0.2 µM | 21.9 ± 0.7 µM | 0.37 ± 0.03 µM | 5.8 ± 0.7 µM | 4 ± 0.3 µM | 3.2 ± 0.3 µM | 14 ± 2 µM | 13.61 ± 0.09 µM | 12 ± 1 µM | % Population Q4 FL1-H- / FL2-H- [13]: 15 ± 1%; % Population Q2 FL1-H+ / FL2-H+ [13]: 13.8 ± 0.1%; % Population Q1 FL1-H- / FL2-H+ [13]: 11.7 ± 0.8%; % Population Q3 FL1-H+ / FL2-H- [13]: 60 ± 2%; % Population Q4 FL1-H- / FL2-H- [14]: 0 ± 0%; % Population Q2 FL1-H+ / FL2-H+ [14]: 97.0 ± 0.2%; % Population Q1 FL1-H- / FL2-H+ [14]: 0 ± 0%; % Population Q3 FL1-H+ / FL2-H- [14]: 3.0 ± 0.2% |
| CN(C)c1ccc(N=Nc2ccccn2)cc1.F[P-](F)(F)(F)(F)F.[Cl][Os+].c1ccc(-c2ccccc2)cc1 [Complex 11, [Os(Azpy-NMe2)(biphenyl)Cl]PF6] | 3900 ± 300 nM | 27 ± 2 µM | 20 ± 1 µM | 16.9 ± 0.1 µM | 7.2 ± 0.05 µM | 16.8 ± 0.2 µM | 10 ± 0.9 µM | 67 ± 3 µM | 28 ± 1 µM | 12 ± 1 µM | 16.8 ± 0.8 µM | 15.8 ± 0.9 µM |  |
| Cc1ccc(S(=O)(=O)[N]2[Os][NH][C@H](c3ccccc3)[C@H]2c2ccccc2)cc1.c1ccc(-c2ccccc2)cc1 [Complex 7, [Os(biphenyl)(Ts-DPEN)]] | 6500 ± 300 nM | 44 ± 1 µM | 22.4 ± 0.7 µM | 15.1 ± 0.5 µM | 26.1 ± 0.3 µM | 25.9 ± 0.7 µM | 46.2 ± 0.7 µM | 90 ± 1 µM | 40 ± 6 µM | 3.5 ± 0.8 µM |  | 3.3 ± 0.4 µM |  |
| CN(C)c1ccc(N=Nc2ccccn2)cc1.F[P-](F)(F)(F)(F)F.[I][Os+].c1ccc(-c2ccccc2)cc1 [Complex 12, [Os(Azpy-NMe2)(biphenyl)I]PF6] | 140 ± 10 nM | 0.35 ± 0.02 µM | 0.27 ± 0.03 µM | 0.42 ± 0.03 µM | 0.82 ± 0.09 µM | 0.11 ± 0.01 µM | 0.33 ± 0.05 µM | 0.33 ± 0.02 µM | 0.39 ± 0.02 µM | 7.7 ± 0.1 µM | 6.6 ± 0.4 µM | 6.5 ± 0.8 µM | First reduction step potential [15]: ca. −0.4 V |
